Experimental data taken from patent US11576916B2, “Methods of preventing or treating ophthalmic diseases” (KINARUS AG, priority 2017, dated 2023).
Counter-ions that a name gives are not always drawn.

Experiments:
[1] = tested on: choroidal neovascularization (CNV) in a mouse model of age-related macular degeneration; experiment: Laser-induced CNV mouse model of AMD: isolectin B4 staining of choroidal flat-mounts (CNV lesion area); format: in vivo, C57BL/6J mice; details: for Formation of CNV in mice, in words: conclusion of the study, versus vehicle
Procedure: (§1) CNV (choroidal neovascularization) in mice or rats is an accepted model to mimic the wet form of age-related macular degeneration (AMD). The model is induced by laser photocoagulation which creates breaks in Bruchs membrane. The subsequent pathological cascade includes inflammation, angiogenesis and proteolysis.
(§2) A study in a mouse model was performed to evaluate the efficacy of pioglitazone and pamapimod each alone or in combination on the development of CNV. Three laser burns were used to induce CNV in the eyes of C57Bl/6J mice. Pioglitazone or pamapimod or the combination of pioglitazone/pamapimod were administered orally once daily to groups of animals starting one day prior to lasering.
(§3) Male 7-week old C57BL/6J mice (Janvier Labs, France) were obtained and housed at a constant temperature (22±+1° C.) in a light-controlled environment with ad libitum access to food and water.
(§4) For CNV induction, animals were anesthetized with an intraperitoneal injection of ketamine (37.5 mg/kg; Ketalar, Pfizer Oy Animal Health, Helsinki, Finland) and medetomidine (0.45 mg/kg; Domitor, Orion Oy, Espoo, Finland). A drop of 0.5% tropicamid (Santen) was applied on the cornea to dilate the pupils. Laser photocoagulation was performed once using a 532 nm diode laser Lumenis Novus Spectra (Lumenis Ltd., Israel) attached to a slit lamp. A coverslip and Viscotears® gel (Novartis) were used to applanate the cornea. Three laser lesions were performed per eye. Following lasering, anesthesia was reversed by u2-antagonist medetomidine, atipamezole (0.5 mg/kg i.p., Antisedan, Orion Pharma, Espoo, Finland).
(§5) Oral drug formulations were prepared in a vehicle adjusted to 4.8±0.05 using buffer. Test compounds [pioglitazone HCl (2.5 mg/ml), pamapimod (10 mg/ml) and combination pioglitazone HCl (2.5 mg/ml)+pamapimod (10 mg/ml)] were formulated in this vehicle and sonicated prior to administration (approx. 3 min).
Aflibercept (Eylea®, Bayer Pharma AG) was purchased as a ready-to-use solution for intravitreal injections at a concentration of 40 mg of aflibercept in 1 ml solution. The dose of 80 μg (injection volume of 2 μl) of aflibercept per mouse eye was used in the present study. […]
The flat-mount choroids were stained with fluorescein-labeled isolectin B4 (Vector Laboratories) to detect lesion CNV area and imaged using Leica DM IRBE microscope (Leica Microsystems, Germany) with an epifluorescent attachment and analyzed using Image J software (v.1.51f, National Institutes of Health, USA).
Quantitative data was graphed and analyzed using GraphPad Prism software (v. 7.0, GraphPad Software Inc.). […]

[2] = tested on: choroidal neovascularization (CNV) in a mouse model of age-related macular degeneration; experiment: Laser-induced CNV mouse model of AMD: retinal thickness by SD-OCT; format: in vivo, C57BL/6J mice; details: after 14 days of treatment; for CNV area retinal thickness, comparison between treatments (in words): versus vehicle, single agents or positive control aflibercept; for Difference in retinal thickness in CNV area as compared to the total retinal thickness: mean ± SD per lesion, vehicle 19.9 ± 20.7; for Difference in retinal thickness in CNV area as compared to the total retinal thickness / Total retinal thickness: SD-OCT, pioglitazone/pamapimod oral once daily, aflibercept 80 μg IVT per eye; for Total retinal thickness: mean ± SD
Procedure: as §1, §2, §3, §4, §5
Aflibercept (Eylea®, Bayer Pharma AG) was purchased as a ready-to-use solution for intravitreal injections at a concentration of 40 mg of aflibercept in 1 ml solution. The dose of 80 μg (injection volume of 2 μl) of aflibercept per mouse eye was used in the present study.
Compounds were administered either orally by gastric lavage (pioglitazone, pamapimod) at a dose of 0.2 ml volume per 20 g mouse weight or by IVT (aflibercept) using a 5 μl glass microsyringe (Hamilton Bonaduz AG, Bonaduz, Switzerland). Aflibercept was injected only into the lasered right eye. The injection volume was 2 μl per eye.
CNV lesions were monitored using Envisu R2200 SD-OCT (Spectral Domain Optical Coherence Tomography system; Bioptigen Inc./Leica) in anesthetized mice as described above. The thickness of each retina was measured from 24 sites of randomly overlaid grid and at all three lasered sites. The total retinal thickness was considered as the thickness of all layers from nerve fiber layer to RPE (healthy measurement sites) or to an implied line connecting the RPE around the site of damage (lasered sites).
Quantitative data was graphed and analyzed using GraphPad Prism software (v. 7.0, GraphPad Software Inc.). The D'Agostino & Pearson normality test was used for each parameter. […] Differences were considered to be statistically significant at the P<0.05 level.

Compound | Formation of CNV in mice, in words [1] | CNV area retinal thickness, comparison between treatments (in words) [2] | Difference in retinal thickness in CNV area as compared to the total retinal thickness ([2]; HCl) [%] | Difference in retinal thickness in CNV area as compared to the total retinal thickness ([2]; listed as pioglitazone, HCl) [%] | Total retinal thickness [2] [μm] | Isolectin B4 positive area per CNV lesion (new vessel area), in words ([1]; choroidal flat-mounts, after 14 days of treatment, Kruskal-Wallis test with Dunn's multiple comparisons) | Difference in retinal thickness in CNV area as compared to the total retinal thickness [2] [%] | Difference in retinal thickness in CNV area as compared to the total retinal thickness ([2]; listed as pamapimod) [%]
CCc1ccc(CCOc2ccc(CC3SC(=O)NC3=O)cc2)nc1 (centres unmarked) [STR001, pioglitazone HCl, reference compound] | significantly decreased | superior to the positive control Aflibercept | 9.86 ± 17.7 | 9.86±17.7 | 215.8 ± 2.9 |  |  | 
Cn1c(=O)c(Oc2ccc(F)cc2F)cc2cnc(NC(CCO)CCO)nc21 [STR002, 6-(2,4-Difluorophenoxy)-2-[3-hydroxy-1-(2-hydroxyethyl)-propylamino]-8-methyl-8H-pyrido[2,3-d]pyrimidin-7-one] | significantly decreased | superior to the positive control Aflibercept |  |  | 216.2 ± 6.0 | significantly different from the pioglitazone alone group | 7.75 ± 22.4 | 7.75±22.4
Aflibercept: Aflibercept (Eylea®, Bayer Pharma AG), ready-to-use solution for intravitreal injections; positive control | significantly decreased |  |  |  | 215.7 ± 6.5 |  | 16.1±26.7 | 
